Assay results from ChEMBL document CHEMBL1201862, “PubChem BioAssay data set” (2004).
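Values below derive from 48-hour exposures of cells grown in 96-well plates, with endpoints linearly interpolated between the two concentrations bracketing the appropriate inhibition level. GI50 = concentration required for 50% inhibition of growth.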 The source made the active and inactive calls. No stated cut-off is given here; in the data, active = GI50 up to about 1.1 µM and inactive = higher.

Assays:
Experiment in all cases: inhibition of tumour cell growth, NCI panel, 48 h
[1] = system: 786-0
[2] = system: M14
[3] = system: DMS-273
[4] = system: UO-31
[5] = system: KM-20L2
[6] = system: RPMI-8226
[7] = system: IGROV-1
[8] = system: K562
[9] = system: M19-MEL
[10] = system: NCI-H522
[11] = system: KM12
[12] = system: OVCAR-4
[13] = system: OVCAR-3
[14] = system: ACHN
[15] = system: SK-MEL-5
[16] = system: A549
[17] = system: SNB-75
[18] = system: LOX IMVI
[19] = system: NCI-H460
[20] = system: EKVX
[21] = system: OVCAR-5
[22] = system: LXFL 529
[23] = system: SK-MEL-2
[24] = system: A498
[25] = system: SF-539
[26] = system: SF-268
[27] = system: SN12C
[28] = system: SK-OV-3
[29] = system: COLO 205
[30] = system: NCI-H23
[31] = system: CCRF-CEM
[32] = system: SNB-19
[33] = system: HOP-18
[34] = system: HL-60
[35] = system: HT-29
[36] = system: DMS-114
[37] = system: UACC-257
[38] = system: NCI-H226
[39] = system: DLD-1
[40] = system: HCC 2998
[41] = system: RXF 393
[42] = system: Malme-3M
[43] = system: HOP-92
[44] = system: U-251
[45] = system: UACC-62
[46] = system: HCT-15
[47] = system: SNB-78
[48] = system: SR
[49] = system: MOLT-4
[50] = system: XF498
[51] = system: HOP-62
[52] = system: SK-MEL-28
[53] = system: CAKI-1
[54] = system: HCT-116
[55] = system: SF-295
[56] = system: OVCAR-8
[57] = system: TK-10
[58] = system: SW-620
[59] = system: NCI/ADR-RES
[60] = system: MCF7

CCCCSC(=CC(=O)c1cccc(C(=O)C=C(SCCCC)SCCCC)n1)SCCCC
GI50 [1]: > 100 µM (inactive) | GI50 [2]: > 100 µM (inactive) | GI50 [3]: > 100 µM (inactive) | GI50 [4]: > 100 µM (inactive) | GI50 [5]: > 100 µM (inactive) | GI50 [6]: > 100 µM (inactive) | GI50 [7]: > 100 µM (inactive) | GI50 [8]: > 100 µM (inactive) | GI50 [9]: > 100 µM (inactive) | GI50 [10]: > 100 µM (inactive) | GI50 [11]: > 100 µM (inactive) | GI50 [12]: > 100 µM (inactive) | GI50 [13]: > 100 µM (inactive) | GI50 [14]: > 100 µM (inactive) | GI50 [15]: > 100 µM (inactive) | GI50 [16]: > 100 µM (inactive) | GI50 [17]: 88.9 µM (inactive) | GI50 [18]: > 100 µM (inactive) | GI50 [19]: > 100 µM (inactive) | GI50 [20]: > 100 µM (inactive) | GI50 [21]: > 100 µM (inactive) | GI50 [22]: > 100 µM (inactive) | GI50 [23]: > 100 µM (inactive) | GI50 [24]: > 100 µM (inactive) | GI50 [25]: > 100 µM (inactive) | GI50 [26]: > 100 µM (inactive) | GI50 [27]: > 100 µM (inactive) | GI50 [28]: > 100 µM (inactive) | GI50 [29]: > 100 µM (inactive) | GI50 [30]: > 100 µM (inactive) | GI50 [31]: > 100 µM (inactive) | GI50 [32]: > 100 µM (inactive) | GI50 [33]: > 100 µM (inactive) | GI50 [34]: > 100 µM (inactive) | GI50 [35]: > 100 µM (inactive) | GI50 [36]: > 100 µM (inactive) | GI50 [37]: > 100 µM (inactive) | GI50 [38]: > 100 µM (inactive) | GI50 [39]: > 100 µM (inactive) | GI50 [40]: > 100 µM (inactive) | GI50 [41]: > 100 µM (inactive) | GI50 [42]: > 100 µM (inactive) | GI50 [43]: > 100 µM (inactive) | GI50 [44]: > 100 µM (inactive) | GI50 [45]: > 100 µM (inactive) | GI50 [46]: > 100 µM | GI50 [47]: > 100 µM (inactive) | GI50 [48]: > 100 µM (inactive) | GI50 [49]: > 100 µM (inactive) | GI50 [50]: > 100 µM (inactive) | GI50 [51]: > 100 µM (inactive) | GI50 [52]: > 100 µM (inactive) | GI50 [53]: > 100 µM (inactive) | GI50 [54]: > 100 µM (inactive) | GI50 [55]: > 100 µM (inactive) | GI50 [56]: > 100 µM (inactive) | GI50 [57]: > 100 µM (inactive) | GI50 [58]: > 100 µM (inactive)

Cc1c2cnccc2c(C)c2c1c1ccccc1n2CCCCCCCl
GI50 [3]: > 39.8 µM (inactive) | GI50 [4]: > 47.5 µM (inactive) | GI50 [5]: 25.1 µM (inactive) | GI50 [6]: 13.2 µM (inactive) | GI50 [7]: > 45.7 µM (inactive) | GI50 [8]: 18.1 µM (inactive) | GI50 [9]: 40 µM (inactive) | GI50 [10]: > 50 µM (inactive) | GI50 [11]: 29.9 µM (inactive) | GI50 [12]: > 10.5 µM (inactive) | GI50 [13]: 49.7 µM (inactive) | GI50 [15]: > 50 µM (inactive) | GI50 [16]: > 48.2 µM (inactive) | GI50 [17]: > 31.6 µM (inactive) | GI50 [18]: 30.4 µM (inactive) | GI50 [19]: 29.4 µM (inactive) | GI50 [20]: > 50 µM (inactive) | GI50 [21]: > 46.2 µM (inactive) | GI50 [23]: > 50 µM (inactive) | GI50 [24]: > 50 µM (inactive) | GI50 [25]: > 50 µM (inactive) | GI50 [26]: > 45 µM (inactive) | GI50 [27]: > 50 µM (inactive) | GI50 [28]: > 50 µM (inactive) | GI50 [29]: 28.2 µM (inactive) | GI50 [30]: 38.6 µM (inactive) | GI50 [31]: 32.7 µM (inactive) | GI50 [32]: 40.4 µM (inactive) | GI50 [33]: > 7.93 µM (inactive) | GI50 [34]: 10.1 µM (inactive) | GI50 [35]: 29.6 µM (inactive) | GI50 [36]: > 40.3 µM (inactive) | GI50 [37]: > 33.1 µM (inactive) | GI50 [38]: 22.5 µM (inactive) | GI50 [39]: > 50 µM (inactive) | GI50 [40]: > 46.8 µM (inactive) | GI50 [41]: > 50 µM (inactive) | GI50 [42]: > 50 µM (inactive) | GI50 [43]: > 50 µM (inactive) | GI50 [44]: 35.1 µM (inactive) | GI50 [45]: > 50 µM (inactive) | GI50 [46]: > 50 µM | GI50 [47]: 32.9 µM (inactive) | GI50 [49]: 19.9 µM (inactive) | GI50 [50]: 33 µM (inactive) | GI50 [51]: > 50 µM (inactive) | GI50 [52]: > 48.4 µM (inactive) | GI50 [53]: > 50 µM (inactive) | GI50 [54]: 23.6 µM (inactive) | GI50 [55]: 48.9 µM (inactive) | GI50 [56]: 26 µM (inactive) | GI50 [59]: > 46.3 µM (inactive) | GI50 [60]: > 50 µM (inactive) | GI50 [58]: 30 µM (inactive)
